Broadly, the IC50 is the concentration at which inhibition is half-maximal.

Some results are limits rather than exact numbers.

For the assay, the target named is T1, APOL1 G1 Protein (Homo sapiens, UniProt O14791, I384M/S342G).
T1 sequence (O14791 28-398 S342G/I384M): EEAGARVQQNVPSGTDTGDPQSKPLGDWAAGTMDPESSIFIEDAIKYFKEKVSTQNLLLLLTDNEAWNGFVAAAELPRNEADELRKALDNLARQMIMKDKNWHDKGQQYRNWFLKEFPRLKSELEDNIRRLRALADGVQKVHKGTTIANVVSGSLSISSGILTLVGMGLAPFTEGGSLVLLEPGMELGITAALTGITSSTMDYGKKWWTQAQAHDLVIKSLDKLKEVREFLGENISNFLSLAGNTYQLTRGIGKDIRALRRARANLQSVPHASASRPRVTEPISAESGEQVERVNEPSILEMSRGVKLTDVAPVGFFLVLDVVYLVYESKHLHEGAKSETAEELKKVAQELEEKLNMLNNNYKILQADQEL
Nature of the assay: Trypanosoma brucei brucei lysis assay using APOL1 recombinant protein (AlamarBlue viability readout). The assay is classed as cell-based. Conditions: Trypanosoma brucei brucei (Lister 427 VSG 221 bloodstream form) lysis by 0.05 μg/mL recombinant APOL1 G1, 16 hrs. The text has this: Trypanosoma brucei brucei is a blood stream parasite to which human, gorillas and baboon are immune due to the presence of the APOL1 protein in their HDL particles. The protein is uptaken by the parasite via the TbHpHb receptor located in its flagellar pocket and is bonded by the Hpr protein contained in the HDL particles which triggers the receptor endocytosis by the parasite.
Following endocytosis, the formed vesicle containing the HDL particle matures from early to late endosome, and subsequently to lysosome. The concomitant pH change in the lumen of the vesicle triggers the insertion of the APOL1 protein into the membrane of the late endosome/lysosome and hereby triggers lysosomal membrane premeabilisation and as a further downstream event, trypanosome lysis. Trypanosoma brucei brucei is sensitive to lysis by all three APOL1 variants (G0, G1, and G2).
The Trypanosoma brucei brucei lysis assay is a lysis assay of the parasite using recombinant APOL1 protein variant followed by a fluorescent detection method of viability by the addition of AlamarBlue reagent to the assay well, a general metabolic redox indicator (AlamarBlue assay).
Briefly, the AlamarBlue active compound, the resazurin, a blue, water soluble, non-toxic and cell permeable molecule, which can be followed by absorbance, is reduced by various metabolic pathways into resorufin, a red compound which can be followed by either absorbance or fluorescence. The assay allows the calculation of the percent viability (percent of living Trypanosomes remaining in each well) at the end of a lysis relative to the untreated condition by interpolation of fluorescent values (FLU) on a standard curve with a known amount of seeded trypanosome/well.
Trypanosoma brucei brucei (ATCC, Cat. No. PRA-382) • Lister 427 VSG 221 bloodstream form.
Thaw/Expansion Media (ATCC Medium 2834 Modified HMI-9 Medium)
Equipment • E1-Clip Tip pipette 12 channel adjustable 2-125 μL, Cat. No. 4672070BT • ThermoFisher MultiDrop 384, Cat. No. 5840300 • Multidrop • Agilent Bravo, Cat. No. G5409A • Bravo • SpectraMax M5
Trypanosoma brucei brucei Culture
Step 2, Day 4 • Centrifuge at 800×g for 5 minutes at room temperature. • Resuspend in 1 mL media. • Make a 1:25 fold dilution (10 μL/240 μL media). • Count on a hemocytometer (after adding parasites). • Let sit for 1-2 minutes for the parasites to settle. • Count should be approximately 100 viable motile parasites/16 grid or approximately 25×10^6 parasites/flask. • Passage the parasites by adding 1×10^6 parasites/T75 flask in 20 mL media. • Passage the parasites by adding 2.33×10^6 parasites/T175 flask in 46.6 mL media. • For every T75 flask should make enough for approximately 1.5×384 well assay plates. • For every T175 flask should make enough for approximately 3.8×384 well assay plates.
Step 3. Day 6 • Centrifuge at 800×g for 5 minutes. • Resuspend in 3 mL assay media (No phenol red, no FBS) per 75 starting flask. • Resuspend in 7 mL assay media (No phenol red, no FBS) per 175 flask • Make a 1:25 fold dilution. • Count by hemocytometer. • Every T75 flask set up should have approximately 75×10^6 parasites/flask (verify doubling time=8.7 hrs 1 hr). • Every T175 flask set up should have approximately 175×10^6 parasites/flask (verify doubling time=8.7 hrs±1 hr). • Require 46×10^6 parasites per 384 well plate (at 120,000 parasites per well).
Step 2, Day 2 • Centrifuge at 800×g for 5 minutes at room temperature. • Resuspend in 1 mL media. • Make a 1:25 fold dilution (10 L/240 μL media). • Let sit for 1-2 minutes for the parasites to settle. • Count should be approximately 100 viable motile parasites/16 grid or approximately 8×10^6 parasites per flask. • Passage the parasites by adding 1.25×10^6 parasites per T75 flask in 20 mL media. • For every T75 flask set up should have approximately 1.5×384 well assay plates. • For every T175 flask setup should have approximately 3.8×384 well assay plates. […]
On the technique in general: Resazurin is reduced to fluorescent resorufin, in cell work by metabolically active cells.
Consider `O=C(CCc1c(-c2ccc(F)cc2)[nH]c2c(F)cc(F)cc12)N[C@@H]1C(=O)NC[C@@H]1O` [Compound 1, 3-[5,7-difluoro-2-(4-fluorophenyl)-1H-indol-3-yl]-N-[(3S,4S)-4-hydroxy-2-oxo-pyrrolidin-3-yl]propanamide], for which the IC50 is less than 250 nM.
Regarding `O=C(CCc1c(-c2ccc(F)cc2)[nH]c2c(F)cc(F)cc12)N[C@@H]1C(=O)NC[C@H]1O` [Compound 2, 3-[5,7-difluoro-2-(4-fluorophenyl)-1H-indol-3-yl]-N-[(3S,4R)-4-hydroxy-2-oxo-pyrrolidin-3-yl]propanamide], the IC50 was less than 250 nM.
With `[2H]C([2H])(C(=O)N[C@@H]1C(=O)NC[C@H]1O)C([2H])([2H])c1c(-c2ccc(F)cc2)[nH]c2c(F)cc(F)cc12` [Compound 88, 2,2,3,3-tetradeutero-3-[5,7-difluoro-2-(4-fluorophenyl)-1H-indol-3-yl]-N-[(3S,4R)-4-hydroxy-2-oxo-pyrrolidin-3-yl]propanamide], the IC50 was less than 250 nM.
`[2H]C(C(=O)N[C@@H]1C(=O)NC[C@H]1O)C([2H])c1c(-c2ccc(F)cc2)[nH]c2c(F)cc(F)cc12` (stereo partly drawn) [Compound 89, 2,3-dideuterio-3-[5,7-difluoro-2-(4-fluorophenyl)-1H-indol-3-yl]-N-[(3S,4R)-4-hydroxy-2-oxo-pyrrolidin-3-yl]propanamide]: the IC50 is less than 250 nM.

These data come from US11618746B2, “Inhibitors of APOL1 and methods of using same” (Vertex Pharmaceuticals Incorporated, priority 2018, dated 2023).
